The structures appear in SMILES notation. Calls of active or inactive are those of the source. Cut-off read from the data, not from the text of the source, for most assays here: actives have a measured IC50 and inactives only a lower limit.

One assay has as its system P388/ADR. Nature of the assay: cells. The class given is functional. As to conditions: Mus musculus.
For the next assay, the system named is SN12K1. Nature of the assay: cells. The class given is functional. The note with it: Homo sapiens.
The next assay relates to P388. Nature of the assay: cells. It counts as functional. As to conditions: Mus musculus.
Assay [1] concerns the target T1, Sentrin-specific protease 8 (Homo sapiens, UniProt Q96LD8).
T1 sequence (Q96LD8 whole entry): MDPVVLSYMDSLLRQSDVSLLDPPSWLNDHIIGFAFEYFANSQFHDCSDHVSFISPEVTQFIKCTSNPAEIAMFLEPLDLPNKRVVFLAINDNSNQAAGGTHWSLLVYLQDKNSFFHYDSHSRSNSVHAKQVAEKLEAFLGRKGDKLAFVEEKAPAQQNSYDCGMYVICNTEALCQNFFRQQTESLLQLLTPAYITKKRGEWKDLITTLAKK
Briefly: SENP8 protease inhibitors, SAR follow-up, biochemical, luminescence (AID 504501). It counts as functional.

The target of assay [2] is T2, Caspase-3 (Homo sapiens, UniProt P42574).
T2 sequence (P42574 whole entry): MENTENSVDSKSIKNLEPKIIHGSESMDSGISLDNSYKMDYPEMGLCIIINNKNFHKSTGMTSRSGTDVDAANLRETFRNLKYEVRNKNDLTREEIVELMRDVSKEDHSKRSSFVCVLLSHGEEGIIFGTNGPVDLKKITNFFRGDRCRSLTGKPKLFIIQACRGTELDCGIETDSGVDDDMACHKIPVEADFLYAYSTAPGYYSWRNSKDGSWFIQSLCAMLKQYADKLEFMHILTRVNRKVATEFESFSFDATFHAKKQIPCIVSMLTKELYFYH
Nature of the assay: SAR Analysis of small molecule inhibitors of Sentrin-specific proteases (SENPs) using a Caspase-3 Selectivity assay. [Related pubchem assays (depositor defined):AID2540, AID2599, AID434973, AID489001]. The class given is functional.

Assay [3] concerns the target T3, Sentrin-specific protease 6 (Homo sapiens, UniProt Q9GZR1).
T3 sequence (Q9GZR1 whole entry): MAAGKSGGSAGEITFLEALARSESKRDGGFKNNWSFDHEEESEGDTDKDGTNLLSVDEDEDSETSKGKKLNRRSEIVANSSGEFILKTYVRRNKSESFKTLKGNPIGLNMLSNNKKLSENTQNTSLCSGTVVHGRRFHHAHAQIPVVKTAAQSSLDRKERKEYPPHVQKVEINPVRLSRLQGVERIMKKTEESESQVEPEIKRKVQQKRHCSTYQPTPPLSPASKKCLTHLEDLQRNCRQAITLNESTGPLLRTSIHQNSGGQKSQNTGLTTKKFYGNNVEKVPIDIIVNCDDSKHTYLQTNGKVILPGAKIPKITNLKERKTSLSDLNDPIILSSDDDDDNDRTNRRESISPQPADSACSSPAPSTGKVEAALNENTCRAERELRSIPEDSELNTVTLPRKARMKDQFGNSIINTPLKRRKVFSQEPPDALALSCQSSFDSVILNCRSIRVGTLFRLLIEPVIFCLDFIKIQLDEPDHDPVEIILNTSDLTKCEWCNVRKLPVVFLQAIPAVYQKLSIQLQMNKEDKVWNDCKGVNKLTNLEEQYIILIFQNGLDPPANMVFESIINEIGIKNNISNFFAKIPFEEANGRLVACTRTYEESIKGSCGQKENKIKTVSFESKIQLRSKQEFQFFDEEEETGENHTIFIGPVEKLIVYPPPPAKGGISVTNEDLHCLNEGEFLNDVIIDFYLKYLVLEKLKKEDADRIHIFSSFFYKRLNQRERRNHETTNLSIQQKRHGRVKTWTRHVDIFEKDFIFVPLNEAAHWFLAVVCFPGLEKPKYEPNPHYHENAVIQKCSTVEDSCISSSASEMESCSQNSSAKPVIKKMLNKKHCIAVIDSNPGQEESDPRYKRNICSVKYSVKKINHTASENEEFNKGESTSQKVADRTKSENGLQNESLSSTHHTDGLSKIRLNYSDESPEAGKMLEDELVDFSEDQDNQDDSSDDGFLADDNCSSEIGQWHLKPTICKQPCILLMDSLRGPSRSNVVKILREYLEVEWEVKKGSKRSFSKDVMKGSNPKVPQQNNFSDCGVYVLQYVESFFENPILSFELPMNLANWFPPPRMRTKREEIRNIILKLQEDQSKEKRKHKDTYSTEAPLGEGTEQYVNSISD
Nature of the assay: SAR Analysis of small molecule inhibitors of Sentrin-specific protease 6 (SENP6) using a Luminescent assay. [Related pubchem assays (depositor defined):AID2582, AID2599]. The class given is functional.

The target of assay [4] is T4, Sentrin-specific protease 7 (Homo sapiens, UniProt Q9BQF6).
T4 sequence (Q9BQF6 whole entry): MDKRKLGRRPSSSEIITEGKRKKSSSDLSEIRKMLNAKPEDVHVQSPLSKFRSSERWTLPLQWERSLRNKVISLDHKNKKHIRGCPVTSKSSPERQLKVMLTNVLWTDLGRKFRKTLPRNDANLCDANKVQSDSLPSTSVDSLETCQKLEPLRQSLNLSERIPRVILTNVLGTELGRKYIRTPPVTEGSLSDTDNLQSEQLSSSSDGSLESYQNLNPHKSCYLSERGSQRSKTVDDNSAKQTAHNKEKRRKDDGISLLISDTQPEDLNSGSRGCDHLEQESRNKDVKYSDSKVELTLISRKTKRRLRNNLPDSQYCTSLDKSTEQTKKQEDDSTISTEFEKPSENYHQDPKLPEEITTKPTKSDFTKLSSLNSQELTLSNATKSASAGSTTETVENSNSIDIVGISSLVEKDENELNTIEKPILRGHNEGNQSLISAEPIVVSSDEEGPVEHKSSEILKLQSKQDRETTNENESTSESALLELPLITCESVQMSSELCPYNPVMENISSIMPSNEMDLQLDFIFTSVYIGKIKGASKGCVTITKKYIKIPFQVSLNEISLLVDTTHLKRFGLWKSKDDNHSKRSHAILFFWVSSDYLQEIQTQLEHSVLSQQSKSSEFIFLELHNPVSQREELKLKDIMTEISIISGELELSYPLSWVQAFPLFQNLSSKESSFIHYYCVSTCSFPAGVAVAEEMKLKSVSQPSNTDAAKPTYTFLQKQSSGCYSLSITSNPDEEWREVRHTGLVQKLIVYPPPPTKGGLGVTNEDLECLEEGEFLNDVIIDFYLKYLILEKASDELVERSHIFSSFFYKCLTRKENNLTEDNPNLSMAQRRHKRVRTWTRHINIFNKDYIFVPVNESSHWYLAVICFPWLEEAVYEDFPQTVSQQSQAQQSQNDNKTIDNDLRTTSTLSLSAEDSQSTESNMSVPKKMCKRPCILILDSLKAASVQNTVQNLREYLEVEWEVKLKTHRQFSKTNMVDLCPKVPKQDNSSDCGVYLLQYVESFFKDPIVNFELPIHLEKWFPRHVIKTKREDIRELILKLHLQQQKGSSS
Briefly: SENP7 protease inhibitors, SAR follow-up, biochemical, luminescence (AID 504497). It counts as functional.

The target of assay [5] is T5, Polyadenylate-binding protein 1 (Homo sapiens, UniProt P11940). Briefly: PABP1 MLLE–PAM2 interaction inhibitors, dose response, miRNA deadenylation inhibitor project, biochemical, fluorescence polarization, Cy5-PAM2 peptide, secondary (AID 602260). The class given is functional. As to conditions: read-out: IC50_Mean. For orientation: Polarisation of emitted light reports the rotation of a fluorescent probe.

For assay [6], the target named is T5, Polyadenylate-binding protein 1. Nature of the assay: PABP1 MLLE–PAM2 binding inhibitor potency, dose response, biochemical, fluorescence polarization, FITC-PAM2 peptide (AID 602259). The class given is functional. As to conditions: read-out: IC50_Mean.
The subject of a further assay is Escherichia coli. Nature of the assay: microbe, parasite or virus in culture.
The target of assay [7] is T2, Caspase-3. The class given is functional.
Assay [8] deals with T4, Sentrin-specific protease 7. It counts as functional.
In assay [9] the target is T3, Sentrin-specific protease 6. It counts as functional.
Assay [10] concerns the target T1, Sentrin-specific protease 8. The class given is functional.
Assay [11] can be described thus: Luminescence Cell-Based Dose Retest to Confirm Inhibitors of Cancer Stem Cells. [Related pubchem assays (depositor defined):AID2717, AID2721]. The note with it: Homo sapiens. The class given is functional.

T5 sequence (P11940 whole entry): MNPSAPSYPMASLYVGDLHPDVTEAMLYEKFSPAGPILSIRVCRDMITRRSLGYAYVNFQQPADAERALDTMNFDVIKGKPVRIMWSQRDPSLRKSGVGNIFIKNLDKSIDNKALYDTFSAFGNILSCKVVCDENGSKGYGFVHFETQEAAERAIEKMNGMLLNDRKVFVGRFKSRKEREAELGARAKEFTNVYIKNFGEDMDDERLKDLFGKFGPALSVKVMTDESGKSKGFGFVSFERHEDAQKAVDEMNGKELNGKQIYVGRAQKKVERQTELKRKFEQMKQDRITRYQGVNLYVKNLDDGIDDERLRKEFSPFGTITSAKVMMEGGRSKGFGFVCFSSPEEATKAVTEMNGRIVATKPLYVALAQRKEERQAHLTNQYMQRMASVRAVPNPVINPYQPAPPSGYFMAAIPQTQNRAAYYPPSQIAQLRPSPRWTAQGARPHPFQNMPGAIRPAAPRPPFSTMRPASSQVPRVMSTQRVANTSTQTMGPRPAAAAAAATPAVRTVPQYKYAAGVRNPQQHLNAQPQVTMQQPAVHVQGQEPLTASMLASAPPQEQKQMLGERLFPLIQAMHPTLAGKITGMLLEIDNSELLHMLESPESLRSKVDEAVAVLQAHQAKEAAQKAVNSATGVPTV

By GI50 is commonly meant the concentration that inhibits growth by half. As for `O=C(O)/C=C/c1c[nH]c(=O)[nH]c1=O`, the GI50 in the assay on P388/ADR, in the assay with SN12K1 and in the assay with P388 was > 500 µM (inactive) in each case.
As for `O=C(Nc1ccc(F)c(F)c1)c1ccc2c(c1)OCO2`, the IC50 in [1] is 8.53 µM (active); at Caspase-3 [2] it was 3.11 µM (active); in [3], 8.66 µM (active); in assay [4] it was 2.85 µM (active).
One may read the AC50 as the concentration at which the activity in the assay is half-maximal. For `CCCCc1c(O)nc(SCC(=O)c2ccccc2)nc1O`, the IC50 in assay [5] and in assay [6] was > 66 µM (inactive) each time. In addition, the AC50 in the assay with Escherichia coli is 30.3 µM (active).
In the case of `O=C1/C(=C/c2cccc(F)c2)Oc2cc(O)ccc21`, the IC50 on Caspase-3 [7] is 18.2 µM (active); in assay [8], 6.09 µM (active); in assay [9] it was 15.9 µM (active); in [10], 2.29 µM (active); in [1] it was 15.8 µM (active); at Caspase-3 [2] it was 9.25 µM (active). In addition, the IC50 in assay [3] is 12 µM (active); in [4], 4.4 µM (active).
For `N#Cc1c(NC(=O)c2ccc(Cn3cc(Br)cn3)o2)sc2c1CCCCC2`, the AC50 in [11] is 2.97 µM (active). In addition, the IC50 (in assay [1]; on Caspase-3 [2]; in assay [3]; in [4]) was > 99 µM (inactive) throughout.
Regarding `COc1cc(OC)cc(C(=O)Nc2ccc(Nc3ccccc3)cc2)c1`, in [11], the AC50 was 4.09 µM (active). Moreover, the IC50 is 30.3 µM (active) on Caspase-3 [7], 5.27 µM (active) in assay [8], 17.8 µM (active) in [9] and 22.5 µM (active) in assay [10].
As to `Cc1nc(Nc2ccc(C(=O)O)cc2)sc1-c1ccccc1`, the IC50 on Caspase-3 [7] is 10.9 µM (active); in assay [8], 0.797 µM (active); in assay [9], 0.787 µM (active); in [10], 1.88 µM (active).
For the compound `Nc1nc(N)c2nc(CNc3ccc(C(=O)NC(CCCNC(=O)c4ccccc4C(=O)O)C(=O)O)cc3)cnc2n1` (centres undefined), the concentration for 50% growth inhibition (GI50) in the assay on P388/ADR, with SN12K1 and in the assay on P388 was < 0.01 µM (active) in each case.
Consider `O=C(Nc1nc2ccc(Cl)cc2s1)c1ccc(C(F)(F)F)cc1`, for which the IC50 (in [1]; on Caspase-3 [2]; in assay [3]; in assay [4]) was > 99 µM (inactive) each time.
As for `CC(=O)Oc1ccccc1/C=C(\C)c1noc(-c2ccccc2O)n1`, the IC50 (in assay [1]; on Caspase-3 [2]; in assay [3]; in assay [4]) was > 99 µM (inactive) throughout.
`C[C@@]1(CO)[C@H](O)CC[C@@]2(C)[C@H]1CC[C@H]1C[C@@H]3C[C@@]12CC[C@@]3(O)COC(=O)CN`: the 50% growth inhibitory concentration (GI50) was 0.481 µM (active) in the assay on P388/ADR and 1.11 µM (active) with P388.
`CCOC(=O)C(C)N1C(=O)c2ccccc2S1(=O)=O` (centres undefined): the GI50 with P388/ADR, with SN12K1 and in the assay with P388 was > 100 µM (inactive) in each case.
For `Cc1c2cnccc2c(C)c2c1c1ccccc1n2CCCCCCCl`, the GI50 in the assay with P388/ADR was 22.8 µM (inactive); in the assay on SN12K1 it was 30 µM (inactive); with P388, 1.77 µM (inactive).
Take `CCCCCCCC/C=C\CCCCCCCCCCCC(=O)O` [ERUCIC ACID]: the GI50 in the assay on P388/ADR was 14.4 µM (inactive); in the assay with SN12K1 it was 9.62 µM (inactive); in the assay with P388, 11.2 µM (inactive).

(Values after ChEMBL document CHEMBL1201862, “PubChem BioAssay data set” (2004).)
